# Patent US20100260830A1, “Liposomal Formulations of Tocopheryl Amides” (priority 2009, published 2010)
# Like-named read-outs stand apart in the source and are kept apart here.
# Assays:
# [1] = test system: mouse melanoma B16F10 cells; experiment: Cytotoxic effect on melanoma cells in vitro
# Description: (§1) IC50 values were calculated from MTT activity (Bank, U et al, 1991, Measurement of cellular activity by means of the MTT-test. Allerg Immunol 37:119-123).
# Jurkat T cells = experiment: Mitochondrial membrane potential ΔΨ, flow cytometry with JC-1 probe; assay type: cell-based
# From the text: FIG. 3 illustrates the effect of selected chromans on mitochondrial membrane potential ΔΨ in vitro. […] Deviations in ΔΨ were estimated by flow cytometry followed by cell staining with the polychromatic JC-1 probe.
# [2] = test system: human breast cancer cell line MCF-7; experiment: MTT cytotoxicity IC50; assay type: cell-based; details: calculated from MTT activity
# Description: as §1
# [3] = General toxicity in mice by the Berlin Test; assay type: in vivo; details: 5 mg/kg in DMSO
# From the text: The general toxicity of liposomal preparations of αTAM was studied further in mice by the Berlin Test. Untreated mice and mice treated with empty liposomes were used as controls. […] Symptoms including spasms and heavy breathing pointed to neurotoxicity, embolie or anaphylactic reaction. Therefore, we have discontinued experiments that involved the use of non-liposomal formulations of αTAM.
# [4] = test system: granulocyte/macrophage colony forming cells (GM-CFC); experiment: GM-CFC colony formation in vitro; assay type: cell-based, Balb/c mouse; details: Balb/c bone marrow GM progenitors
# Description: FIGS. 8A and 8B are comparative views illustrating the paradoxical effect of the liposomal formulation on non-specific toxicity, here to granulocyte/macrophage colony forming cells (GM-CFC). […] In the left panel, GM progenitors were isolated from Balb/c mouse bone morrow and treated with αTOS (left) or αTAM (right, black bars) at the concentrations shown, the number of colonies was counted and expressed per individual well. In the right panel, Balb/c mice were injected i.p. with the vehicle (40), empty liposomes (41) liposomal αTOS at 100 mg/kg (42), αTAM at 10 mg/kg (43), or αTAM at 25 mg/kg (44), and GM-CFC colonies in femoral bone marrow counted 48 h later (* denotes statistically significant differences with pb0.05 in comparison to control). […] This surprising result is paradoxical, and points to the importance of the formulation vehicle as a technological advance in achieving clinical trials of these compounds.
# [5] = Injection of αTAM dissolved in DMSO or ethanol (Prior Art I); assay type: in vivo, mice
# From the text: In earlier work to develop a formulation of αTAM for preclinical study, the compound was first dissolved in DMSO or ethanol as has been characteristic of studies of this kind (Weber et al, 2002, Vitamin E succinate is a potent novel antineoplastic agent with high selectivity and cooperativity with tumor necrosis factor-related apoptosis-inducing ligand (Apo2 ligand) in vivo, Clin Cancer Res 8:863-69; Yu et al, 1999, Induction of apoptosis in human breast cancer cells by tocopherols and tocotrienols, Nutr Cancer 33:26-32).
# Meso-2 cells = experiment: IC50 against Meso-2 cells (FIG. 14A); assay type: cell-based; details: values only in FIG. 14A
# From the text: In FIG. 14A, esters and amides of the chromanol and N-chroman genera are compared. […] There is a correlation between increased potency and CLogP, where amide lipophilicity is consistently greater than that of the corresponding esters. Other factors of molecular structure also play a role.
# [6] = test system: non-malignant cells (e.g. lymphocytes and bone marrow progenitors); experiment: In vitro models of non-malignant cells; assay type: cell-based
compound,measurement,setting,value
tocopheryl succinate [αTOS],cytotoxic potential (order),[1]; B16F10 in vitro,αTAM>αTOM>αTOS>>αTOH
"Cc1c(C)c2c(c(C)c1NC(=O)/C=C\C(=O)O)CCC(C)(CCCC(C)CCCC(C)CCCC(C)C)O2 (stereo not drawn) [αTAM, α-tocopheryl maleamide]",dissipating mitochondrial inner transmembrane potential,Jurkat T cells,potent in dissipating mitochondrial inner transmembrane potential
same,cytotoxic potential (order),[1],αTAM>αTOM>αTOS>>αTOH
same,IC50,[2],13.3 µM
same,outcome of free compound administered in DMSO,[3],caused rapid death of the animals
same,toxicity to GM progenitors in vitro,[4],the compound is toxic in vitro
same,outcome of one or two injections in DMSO,"[5]; Balb/c, C57B1 or FVB/N c-neu mice",caused death of the animals
same,toxicity of solution in DMSO (or ethanol),[5]; non-liposomal solution,extremely toxic
same,cytolytic potency versus the corresponding tocopheryl succinates,Meso-2 cells,markedly increased cytolytic potency
same,cytotoxicity to non-malignant cells,[6],cytotoxic to non-malignant cells
same,tolerated dose,given in liposomal formulation,500 μg per 20 g mouse
same,dose feasible for human use,"mouse, in vivo",1.75 g
same,safe dose,"mouse, in vivo",25 mg/kg
"Cc1c(C)c2c(c(C)c1NC(=O)CCC(=O)O)CCC(C)(CCCC(C)CCCC(C)CCCC(C)C)O2 (stereo not drawn) [αTAS, α-tocopheryl succinamide]",dissipating mitochondrial inner transmembrane potential,Jurkat T cells,potent in dissipating mitochondrial inner transmembrane potential
Cc1c(C)c2c(c(C)c1O)CC[C@@](C)(CCC[C@H](C)CCC[C@H](C)CCCC(C)C)O2 [αTOH],cytotoxic potential (order),[1],No toxicity was observed
